“Also recorded” adds a separate entry of the source.
Tests used:
[1] = tested on: AKT serine phosphorylation (S473); test: AKT phosphorylation by Western blotting; assay type: cell-based
Method: This is AKT signaling key to cancer cell growth, and BIA and its analogues tend to inhibit it. Only representative experimental results were presented. Data were expressed as mean±SD. After one-way ANOVA, Tukey's post hoc test is conducted.
After cell recovery, cell lytic buffer (10 mM Tris-Cl (pH 7.4), 5 mM EDTA, 130 mM NaCl, 1% Triton X-100) and protease inhibitor mix protease inhibitor cocktail (protease inhibitor cocktail and phosphatase inhibitor cocktail) were added and left at 4° C. for 30 minutes. After breaking the cells with ultrasound, they were centrifuged at 13,000× g at 4° C. for 30 minutes, and then the supernatant was taken, and the concentration was quantified using a protein quantification kit (Bio-Rad Laboratories, Hercules, CA, USA). 20 ug of the obtained protein was electrophoresis with polyacrylamide gel electrophoresis (SDS-PAGE) followed by electrotransfer to PVDF membrane (Bio-Rad). The membrane was blocked at room temperature for 1 hour with a TBS-T solution (20 mM Tris (pH 7.5), 137 mM NaCl, 0.05% Triton X-100) containing 5% skim milk. Then, after switching to a solution containing the primary antibody, it was reacted at 4° C. The membrane after the reaction was washed three times with TBS-T solution, reacted with a secondary antibody, and then luminesced using an ECL kit and autoradiography. […]

[2] = target: T1, BI-1 (TMBIM6) (Homo sapiens, UniProt P55061); test: G-CEPIAer ER lumen calcium indicator; assay type: cell-based; conditions: HT1080, 10 μM BIA, compared to untreated control cells
T1 construct: endogenous in cells; host or cells: HT1080 cells transfected only with the G-CEPIAer indicator plasmid
T1 sequence (P55061 whole entry): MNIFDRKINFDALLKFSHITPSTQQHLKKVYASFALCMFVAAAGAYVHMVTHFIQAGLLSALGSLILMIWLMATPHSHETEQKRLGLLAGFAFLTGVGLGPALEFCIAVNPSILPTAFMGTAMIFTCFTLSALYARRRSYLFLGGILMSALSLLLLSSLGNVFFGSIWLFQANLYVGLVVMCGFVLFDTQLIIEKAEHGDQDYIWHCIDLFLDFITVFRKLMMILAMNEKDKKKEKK
Method: FIG. 74B is a result of treating HT1080 cells with BIA 10 μM and observing the fluorescence intensity of G-CEPIAer designed to measure calcium concentration inside
Since BI-1 regulates mTORC2 activation through ER Ca2+ release, the above results confirmed whether BIA inhibits Ca2+ release from BI-1.
On the other hand, when BIA is treated, calcium inside ER increases because […] in ER inhibits calcium. This was expressed G-CEPIAer, which measures the calcium concentration inside ER, and metamorphed HT1080 cells using CEPIAer plasmid to create stable cells. This transfected cell can be used to detect only free calcium from ER via BI-1 (TMBIM6) based on the calcium channel-like nature of BI-1 (TMBIM6). By confirming the increase in fluorescence, it was possible to confirm the specificity of the BIA (see FIG. 74B).

[3] = tested on: HT1080; test: Cell proliferation/viability with BIA, IC50 after 3 days; assay type: cell-based; conditions: Homo sapiens, HT-1080, 72 h; HT1080, treatment for 3 days
[4] = tested on: HT1080, MCF7, MDA-MB-231 and SKBR3 cell lines; test: Cell proliferation and viability of cell line panel with BIA; assay type: cell-based; conditions: 5 μM BIA
[5] = tested on: tumors derived from HT1080 cells; test: Xenograft in nude mice; assay type: in vivo; conditions: 1 mg/kg BIA, 5 days a week, 25 days
Method: Mice purchased 20-25 g of BALBc/Nude and conducted experiments after 1 week of preliminary breeding to adapt to the laboratory environment. This experiment was approved by the Animal Experiment Ethics Committee of Chonbuk National University (CBNU 201 5-064, CBNU 2016-56) and was carried out according to standard work instructions, and the conditions in the breeding room were kept constant temperature and relative humidity, a 12-hour contrast cycle, and water and feed were freely consumed. Experimental animals are transplanted subcutaneously with 5×10^6 cells per mouse using HT1080 cell line and MDA-MB-231 cell line, and after 7-10 days, mice forming tumor sizes of 100 mm^3 are randomly divided into control and experimental groups. […] The tumor size was measured with a caliper and calculated using the following formula: […]
In culture, exponentially growing BI-1 (TMBIM6) knockout and WT HT1080 cells were treated with trypsin and quantified through trypan blue staining differentiation, and 3-5×10^6 cells were resuspended in 0.1 ml PBS. […]
After 25-28 days, the mice were euthanized, solid tumors were incised, and tumor volumes were recorded. Tumor size was measured with a caliper. The tumor volume (mm^3) was calculated by the formula [(shortest diameter)2×longest diameter]/2. […]

[6] = tested on: MCF7; test: Cell proliferation/viability with BIA, IC50 after 3 days; assay type: cell-based; conditions: Homo sapiens, MCF7, 72 h; MCF cells, treatment for 3 days
[7] = tested on: BI-1 (TMBIM6); test: TMBIM6-GCaMP3 fluorescence, calcium released through BI-1; assay type: cell-based; conditions: HT1080 cells expressing TMBIM6-GCaMP3, BIA 10 μM, over time

`Nc1ccccc1C(=O)/C=C/c1cccc([N+](=O)[O-])c1` [BIA, 2E-1-2-Aminophenyl-3-3-nitrophenyl-2-propen-1-one] was tested, and the “phosphorylation of AKT” value ([1]; BIA-treated cells, following loss of BI-1/mTORC2/ribosome binding) was “complete reduction”, the “AKT serine phosphorylation S473” value ([1]; HT1080 cells, 1 or 2 μM) was “inhibited” and the “phosphorylation of AKT” value ([1]; MDA-MB-231 cells, 1 or 2 μM) was “equally inhibited”. For the same molecule, the “phosphorylation of AKT” value ([1]; SKBR3 cells, 1 or 2 μM) was “equally inhibited”, the “G-CEPIAer fluorescence intensity (ER calcium)” value [2] was “increased” and the IC50 [3] was 1700 ± 100 nM. For the same molecule, the “proliferation and cell viability of all cell lines” value [4] was “inhibited; also recorded: suppressed”, the tumor growth [5] was “significantly impaired” and the IC50 [6] was 2600 ± 400 nM. The BI-1-GCaMP3 fluorescence intensity [7] was “decreasing pattern; also recorded: decreased over time”.
